Source: patent US8741871B2, “Trehalose compound, method for producing same, and pharmaceutical product containing the compound” (priority 2008, dated 2014)

Key:
[1] = tested on: IL-6, TNF-α, IFN-γ in mouse plasma; assay: Measurement of IL-6, TNF-α and IFN-γ released into peripheral blood of test compound administered mouse; details: 100 μg/mouse intravenous, two hours later; for IL-6-releasing activity (mouse plasma IL-6 concentration) compared with TDCM: FIG. 6; for IFN-γ-releasing activity (mouse plasma IFN-γ concentration) compared with TDCM: FIG. 7
THP-1 cells [2] = assay: Release of cytokine (MIP-1β, TNF-α) from THP-1 cells (ELISA); assay type: cell-based, human; details: 100 μM test compound, 2 hours, FIG. 9; for release level of TNF-α from THP-1 cells compared with the negative control: negative control vehicle; for release level of MIP-1β from THP-1 cells compared with the positive control: positive controls control compound A and TDCM
THP-1 cells [3] = assay: Analysis of cytotoxicity to THP-1 cells using trypan blue; assay type: cell-based, human; details: treated for 2 hours and for 24 hours; FIG. 10
Experimental: The cultured THP-1 cells were transferred into a 50-ml centrifuge tube in a clean bench. The cells were then centrifuged at 1,000 rpm for 5 minutes at 20° C., and the supernatant was then removed. […] 10 μl of this cell suspension was added to a sterile Eppendorf tube, to which 990 μl of serum-free RPMI 1640 medium had previously been added, so that the solution was 100-fold diluted. The number of cells in 10 μl of the 100-fold diluted solution was counted with a blood cell counter, and the cell suspension was diluted with serum-free RPMI 1640 medium to a cell density of 1×10^7 cells/ml.
A test compound (Example 9)/DMSO solution, or DMSO was added to 100 μl of RPMI medium to a concentration of 200 μM. Thereafter, ultrasonic wave was applied to the mixture for 5 seconds. It is to be noted that a test compound, 6-O-(2-decyldecanoyl)-α-glucose (hereinafter referred to as a “control compound B”), and TDCM were used to prepare positive controls in the same manner as described above. In addition, a negative control was prepared by adding no test compounds (vehicle). […] Subsequently, 20 μl of 0.3% trypan blue/PBS (−) was added to the reaction solution so as to suspend the reaction solution therein, and thereafter, the survival rate of the cells was immediately analyzed using a cell number measuring apparatus (CYRORECON).

[4] = tested on: mouse intraperitoneal macrophages; assay: Measurement of active oxygen released from mouse intraperitoneal macrophages (H2DCFDA fluorescence); assay type: cell-based; details: 50 μM test compound, one hour; FIG. 1
Experimental: 3 ml of 5% thioglycolate medium (Difco, BD, code. 225640, Lot. 6192372) was administered into the abdominal cavity of a mouse (ICR mouse (SPF), 5-week-old, male). Four days after the administration, the mouse was sacrificed with the use of diethyl ether. […] This operation was repeatedly carried out two times. […] Thereafter, the number of macrophages was counted with One Cell Counter (Wakenyaku Co., Ltd.). The obtained macrophages were diluted with an RPMI-1640 medium to have any given concentration. The thus obtained mouse intraperitoneal macrophages were used in the subsequent test.
0.7 g of BSA was weighed into a large test tube. […] Subsequently, protein was quantified using Nano Drop ND-1000, and it was then diluted with sterilized PBS (−) so as to result in a final concentration of 2%. […]
After the macrophages had been washed with HBSG-BSA, they were then suspended in approximately 5 mL of HBSG-BSA, and 100 of the obtained suspension was then dispensed into each well of a 96-well Collagen Well (TC-PLATE 96 WELL, STERILE WITH LID, IND PACKED). […] One hour later, the amount of active oxygen was measured using Genios fluorescence intensity measurement apparatus.
The above-mentioned H2DCFDA is a fluorescent probe, and its fluorescence intensity is increased in the presence of hydrogen peroxide (H2O2).

THP-1 cells [5] = assay: Measurement of IL-8 released from THP-1 cells (ELISA); assay type: cell-based, human; details: 50 μM test compound, two hours; FIG. 5
Experimental: An RPMI medium solution was prepared in the same manner as described above. Using this medium solution, an RPMI medium solution of the test compound was prepared as follows.
1.0 mg of the test compound was dissolved in 25 μl of DMSO by an ultrasonic treatment for approximately 1 minute. The thus obtained 40 mM test compound stock solution was added to 100 μl of RPMI medium to a final concentration of 50 μM. […] In the case of preparing the vehicle used as a control, instead of the 40 mM test compound stock solution, only the solvent was added in the same amount as described above to the RPMI medium, and it was then treated with ultrasonic wave for 5 seconds.
THP-1 cells (purchased from Cell Bank, RIKEN BioResource Center) were added to an RPMI medium to a cell density of 1.0×10^6 cells/100 μl and 100 μl each of the obtained solution was dispensed into a sterile Eppendorf tube. 100 μl of the RPMI medium solution of the test compound as prepared above was treated with ultrasonic wave for 5 seconds, and the total amount of the solution was then added to the Eppendorf tube, into which the cells had been dispensed. Two hours later, the reacted Eppendorf tube was centrifuged at 5000 rpm for 5 minutes, and the amount of IL-8 released into the supernatant was then measured using ELISA kit (human IL-8 ELISA kit (R & D Systems (trademark)).

[6] = tested on: Salmonella typhmurium TA98; assay: Mutagenicity test (Ames test); details: TA98, in the presence or absence of S9 mix; FIG. 11

Row | Compound | IL-6-releasing activity (mouse plasma IL-6 concentration) compared with TDCM [1] | IFN-γ-releasing activity (mouse plasma IFN-γ concentration) compared with TDCM [1] | plasma TNF-α concentration in mice, activity compared with TDCM ([1]; FIG. 8) | release level of TNF-α from THP-1 cells compared with the negative control (THP-1 cells [2]) | release level of MIP-1β from THP-1 cells compared with the positive control (THP-1 cells [2]) | cytotoxicity to THP-1 cells (survival rate, trypan blue staining) (THP-1 cells [3]) | action to promote the generation of active oxygen from mouse intraperitoneal macrophages, compared with TDCM [4] | IL-8 released from THP-1 cells, activity compared with TDCM (THP-1 cells [5]) | mutagenicity (Ames test, number of His colonies) [6]
1 | CCCCCCCCCCC(CCCCCCCCCC)C(=O)OCC1O[C@H](O[C@H]2OC(COC(=O)C(CCCCCCCCCC)CCCCCCCCCC)[C@@H](O)C(O)C2O)C(O)C(O)[C@@H]1O (stereo partly drawn) [Example 1, 6,6′-bis-O-(2-decyldodecanoyl)-α,α′-trehalose] | approximately 1.2 times | approximately 1.5 times | the same level as that of TDCM | almost equivalent to | higher than | significant results could be obtained | two times higher than the activity of TDCM | approximately 0.6 times | significant results could be obtained
2 | CCCCCCCCCC(CCCCCCCCC)CC(=O)OCC1O[C@H](O[C@H]2OC(COC(=O)CC(CCCCCCCCC)CCCCCCCCC)[C@@H](O)C(O)C2O)C(O)C(O)[C@@H]1O (stereo partly drawn) [Example 9, 6,6′-bis-O-(3-nonyldodecanoyl)-α,α′-trehalose] | approximately 1.5 times | approximately 1.5 times |  | almost equivalent to | 8 to 10 times | cytotoxicity was not observed | two times higher than the activity of TDCM | approximately 0.8 times | did not exhibit mutagenicity
